IC50 data for eleven compounds are collected here from patent US20080114007A1 (priority 2006, published 2008).

In the experiment the target is CSF-1R (Homo sapiens, UniProt P07333). Description: Peptide (non-phosphorylated) assay, fluorescence polarization competition immunoassay. Type of experiment: biochemical. The following applies: 0.7 nM CSF-1R, 308 μM SYEGNSYTFIDPTQ peptide, 1 mM ATP, 80 min; mean of at least three determinations; read-out: c-fms Peptide IC50. Summed up: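 Human CSF-1R kinase reaction started with ATP and run 80 min at room temperature, then stopped with EDTA. Phosphopeptide detected by fluorescence polarization competition using anti-phosphotyrosine antibody and PTK green tracer after 30 min. Controls used 4% DMSO, with EDTA added before reaction start for positive controls.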
CSF-1R, sequence (P07333 20-972): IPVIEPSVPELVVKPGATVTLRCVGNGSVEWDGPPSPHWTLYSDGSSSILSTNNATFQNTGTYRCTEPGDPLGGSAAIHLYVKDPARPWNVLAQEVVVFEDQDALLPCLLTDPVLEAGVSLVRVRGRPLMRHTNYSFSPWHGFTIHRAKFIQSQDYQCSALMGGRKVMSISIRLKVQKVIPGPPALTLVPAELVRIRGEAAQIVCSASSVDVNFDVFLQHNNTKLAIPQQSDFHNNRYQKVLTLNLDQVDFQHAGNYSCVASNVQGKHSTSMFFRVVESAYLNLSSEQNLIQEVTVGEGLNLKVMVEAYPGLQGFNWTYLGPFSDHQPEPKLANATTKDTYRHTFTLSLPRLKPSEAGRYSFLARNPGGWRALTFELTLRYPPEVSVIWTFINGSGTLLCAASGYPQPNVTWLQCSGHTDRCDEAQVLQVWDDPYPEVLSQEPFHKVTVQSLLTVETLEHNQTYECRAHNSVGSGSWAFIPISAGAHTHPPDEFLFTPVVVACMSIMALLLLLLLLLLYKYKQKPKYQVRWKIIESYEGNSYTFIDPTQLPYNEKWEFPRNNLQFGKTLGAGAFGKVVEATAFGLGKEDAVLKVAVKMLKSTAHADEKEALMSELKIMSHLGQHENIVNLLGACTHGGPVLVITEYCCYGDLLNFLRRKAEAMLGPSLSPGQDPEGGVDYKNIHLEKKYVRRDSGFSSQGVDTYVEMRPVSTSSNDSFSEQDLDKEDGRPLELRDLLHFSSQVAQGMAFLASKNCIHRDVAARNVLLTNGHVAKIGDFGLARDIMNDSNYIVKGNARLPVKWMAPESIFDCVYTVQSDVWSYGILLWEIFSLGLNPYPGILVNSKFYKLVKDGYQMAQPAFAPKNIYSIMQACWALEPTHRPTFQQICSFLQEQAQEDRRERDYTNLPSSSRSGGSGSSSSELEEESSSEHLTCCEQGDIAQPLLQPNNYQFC
Background: Fluorescence polarisation rises when a labelled molecule tumbles more slowly, as on binding a larger partner.

A word on the IC50: it is the midpoint of a concentration-inhibition curve. Consider `CONC(=O)c1cn(-c2ccc3c(c2)CCC3)c2nc(Nc3cccc(C(=O)NCCN4CCCC4)c3)ncc2c1=O` [Cpd 192, 8-indan-5-yl-5-oxo-2-[3-(2-pyrrolidin-1-yl-ethylcarbamoyl)-phenylamino]-5,8-dihydro-pyrido[2,3-d]pyrimidine-6-carboxylic acid methoxy-amide], for which the 50% inhibitory concentration (IC50) turned out to be 6.3 nM.

`CCN1CCCC1CNC(=O)c1cccc(Nc2ncc3c(=O)c(C(=O)NOC)cn(-c4ccc5c(c4)CCC5)c3n2)c1` (centres unmarked) [Cpd 193, 2-{3-[(1-ethyl-pyrrolidin-2-ylmethyl)-carbamoyl]-phenylamino}-8-indan-5-yl-5-oxo-5,8-dihydro-pyrido[2,3-d]pyrimidine-6-carboxylic acid methoxy-amide]: the IC50 stood at 2.5 nM.

In the case of `CONC(=O)c1cn(-c2ccc3c(c2)CCC3)c2nc(Nc3cccc(CCN4CCCC4)c3)ncc2c1=O` [Cpd 194, 8-indan-5-yl-5-oxo-2-[3-(2-pyrrolidin-1-yl-ethyl)-phenylamino]-5,8-dihydro-pyrido[2,3-d]pyrimidine-6-carboxylic acid methoxy-amide], the 50% inhibitory concentration (IC50) was determined as 0.65 nM.

For the compound `CONC(=O)c1cn(-c2ccc3c(c2)CCC3)c2nc(Nc3cccc(N4CC(C)NC(C)C4)c3)ncc2c1=O` (centres unmarked) [Cpd 195, 2-[3-(3,5-dimethyl-piperazin-1-yl)-phenylamino]-8-indan-5-yl-5-oxo-5,8-dihydro-pyrido[2,3-d]pyrimidine-6-carboxylic acid methoxy-amide], the IC50 was 0.96 nM.

On to `CONC(=O)c1cn(-c2ccc3c(c2)CCC3)c2nc(Nc3cccc(N4CCN(C(C)=O)CC4)c3)ncc2c1=O` [Cpd 196, 2-[3-(4-acetyl-piperazin-1-yl)-phenylamino]-8-indan-5-yl-5-oxo-5,8-dihydro pyrido[2,3-d]pyrimidine-6-carboxylic acid methoxy-amide], for which the IC50 was 1.7 nM.

As for `CONC(=O)c1cn(-c2ccc3c(c2)CCC3)c2nc(Nc3cccc(C4CCN(C(C)=O)CC4)c3)ncc2c1=O` [Cpd 197, 2-[3-(1-acetyl-piperidin-4-yl)-phenylamino]-8-indan-5-yl-5-oxo-5,8-dihydro-pyrido[2,3-d]pyrimidine-6-carboxylic acid methoxy-amide], the concentration for half-maximal inhibition (IC50) is 1.4 nM.

Take `CONC(=O)c1cn(-c2ccc3c(c2)CCC3)c2nc(Nc3cccc(C(=O)NCCN4CCOCC4)c3)ncc2c1=O` [Cpd 198, 8-indan-5-yl-2-[3-(2-morpholin-4-yl-ethylcarbamoyl)-phenylamino]-5-oxo-5,8-dihydro-pyrido[2,3-d]pyrimidine-6-carboxylic acid methoxy-amide]: the IC50 stood at 4.2 nM.

`CONC(=O)c1cn(-c2ccc3c(c2)CCC3)c2nc(Nc3cccc(C(=O)NCCN(C)C)c3)ncc2c1=O` [Cpd 199, 2-[3-(2-dimethylamino-ethylcarbamoyl)-phenylamino]-8-indan-5-yl-5-oxo-5,8-dihydro-pyrido[2,3-d]pyrimidine-6-carboxylic acid methoxy-amide]: the IC50 stood at 1.4 nM.

As to `CONC(=O)c1cn(-c2ccc3c(c2)CCC3)c2nc(Nc3cccc(CCN4CCN(C)CC4)c3)ncc2c1=O` [Cpd 200, 8-indan-5-yl-2-{3-[2-(4-methyl-piperazin-1-yl)-ethyl]-phenylamino}-5-oxo-5,8-dihydro-pyrido[2,3-d]pyrimidine-6-carboxylic acid methoxy-amide], the concentration for half-maximal inhibition (IC50) worked out at 1.3 nM.

In the case of `CONC(=O)c1cn(-c2ccc3c(c2)CCC3)c2nc(Nc3cccc(N4CCN(S(C)(=O)=O)CC4)c3)ncc2c1=O` [Cpd 201, 8-indan-5-yl-2-[3-(4-methanesulfonyl-piperazin-1-yl)-phenylamino]-5-oxo-5,8-dihydro-pyrido[2,3-d]pyrimidine-6-carboxylic acid methoxy-amide], the concentration for half-maximal inhibition (IC50) is 1.8 nM.

As for `CONC(=O)c1cn(-c2ccc3c(c2)CCC3)c2nc(Nc3cccc(N4CCN(S(=O)(=O)C(F)(F)F)CC4)c3)ncc2c1=O` [Cpd 202, 8-indan-5-yl-5-oxo-2-[3-(4-trifluoromethanesulfonyl-piperazin-1-yl)-phenylamino]-5,8-dihydro-pyrido[2,3-d]pyrimidine-6-carboxylic acid methoxy-amide], the IC50 was 68 nM.
